Assay [1] has as its target T1, Voltage-dependent L-type calcium channel subunit alpha-1C (Rattus norvegicus, UniProt P22002). Nature of the assay: (§1) Inhibition of L-type calcium channel measured using whole-cell patch clamp in rat ventricular myocytes. It is filed as functional, cell-based, Heart, Ventricular myocyte. Details: ca sol conc 0 mM, temp room. For orientation: Patch clamp records ionic current or voltage across a cell membrane.

Assay [2] addresses T2, Voltage-dependent L-type calcium channel subunit alpha-1C (Cavia porcellus, UniProt O35505). The assay can be described thus: (§2) Inhibition of L-type calcium channel measured using whole-cell patch clamp in guinea pig ventricular myocytes. The class given is functional, cell-based, Heart, Ventricular myocyte. Details: ca sol conc 0 mM, temp 20-25 C.
Assay [3] concerns the target T2, Voltage-dependent L-type calcium channel subunit alpha-1C. Described as §2. It is filed as functional, cell-based, Heart, Ventricular myocyte. Details: ca sol conc 1.8 mM, temp 20-22 C.
Assay [4] deals with T3, Voltage-dependent L-type calcium channel subunit alpha-1C (Homo sapiens, UniProt Q13936). Nature of the assay: (§3) Inhibition of L-type calcium channel measured using 2-electrode voltage-clamp in Xenopus oocyte heterologically expressing alpha-1C subunit. It is filed as functional, cell-based. More on the design: ca sol conc 0 mM, temp room.
The target in assay [5] is T3, Voltage-dependent L-type calcium channel subunit alpha-1C. The assay is described as §3. It is filed as functional, cell-based. More on the design: ca sol conc 0 mM, temp room. The source holds these as a separate data set.
The target in assay [6] is T1, Voltage-dependent L-type calcium channel subunit alpha-1C. The assay is described as §1. Details: ca sol conc 2 mM, temp 22-23 C. The class given is functional, cell-based, Heart, Ventricular myocyte.
For assay [7] the target is unchanged. The assay is described as §1. It is filed as functional, cell-based, Heart, Ventricular myocyte. Details: ca sol conc 1 mM, temp 20-24 C.
The target in assay [8] is T2, Voltage-dependent L-type calcium channel subunit alpha-1C. The description is as §2. The class given is functional, cell-based, Heart, Ventricular myocyte. More on the design: ca sol conc 1 mM, temp room.
Assay [9] shares this target. The description is as §2. More on the design: ca sol conc 1 mM, temp room. It is filed as functional, cell-based, Heart, Ventricular myocyte. This is another data set of the same source.
Assay [10] has as its target T1, Voltage-dependent L-type calcium channel subunit alpha-1C. Described as §1. The class given is functional, cell-based, Heart, Ventricular myocyte. Details: ca sol conc 2 mM, temp 36-37 C.
For assay [11] the target is unchanged. The assay is described as §1. The class given is functional, cell-based, Heart, Ventricular myocyte. Details: ca sol conc 2 mM, temp 36-37 C. The source holds these as a separate data set.
The target in assay [12] is T2, Voltage-dependent L-type calcium channel subunit alpha-1C. Described as §2. The class given is functional, cell-based, Heart, Ventricular myocyte. Details: ca sol conc 1 mM, temp 20 C.
The target in assay [13] is T3, Voltage-dependent L-type calcium channel subunit alpha-1C. Nature of the assay: Inhibition of L-type calcium channel measured using […] ovary cells heterologically expressing alpha-1C subunit. It is filed as functional, cell-based, Cricetulus griseus, CHO. Details: ca sol conc 0 mM, temp room.
The target in assay [14] is T2, Voltage-dependent L-type calcium channel subunit alpha-1C. The assay is described as §2. The class given is functional, cell-based, Heart, Ventricular myocyte. More on the design: ca sol conc 1.8 mM, temp 36-37 C.
The target is the same in assay [15]. The description is as §2. The class given is functional, cell-based, Heart, Ventricular myocyte. More on the design: ca sol conc 1.8 mM, temp 32-33 C.
The target is the same in assay [16]. Described as §2. The class given is functional, cell-based, Heart, Ventricular myocyte. Details: ca sol conc 1.8 mM, temp room.
Assay [17] shares this target. The description is as §2. It is filed as functional, cell-based, Heart, Ventricular myocyte. More on the design: ca sol conc 2 mM, temp 35.5-36.5 C.
Assay [18] addresses T3, Voltage-dependent L-type calcium channel subunit alpha-1C. Nature of the assay: (§4) Inhibition of L-type calcium channel measured using […] kidney cells heterologically expressing alpha-1C subunit. The class given is functional, cell-based, HEK293. Details: ca sol conc 10 mM, temp room.
For assay [19], the target named is T2, Voltage-dependent L-type calcium channel subunit alpha-1C. The assay is described as §2. It is filed as functional, cell-based, Heart, Ventricular myocyte. More on the design: ca sol conc 1.8 mM, temp 20-22 C. The source holds these as a separate data set.
In assay [20] the target is T3, Voltage-dependent L-type calcium channel subunit alpha-1C. The description is as §4. The class given is functional, cell-based, HEK293. More on the design: ca sol conc 0 mM, temp 21-24 C.
Assay [21] shares this target. The assay is described as §4. It is filed as functional, cell-based, HEK293. More on the design: ca sol conc 0 mM, temp room.
Assay [22] addresses T2, Voltage-dependent L-type calcium channel subunit alpha-1C. Described as §2. Details: ca sol conc 1.8 mM, temp 20-22 C. The class given is functional, cell-based, Heart, Ventricular myocyte. The source holds these as a separate data set.
For assay [23] the target is unchanged. Described as §2. The class given is functional, cell-based, Heart, Ventricular myocyte. More on the design: ca sol conc 0 mM, temp 36 C.
For assay [24], the target named is T3, Voltage-dependent L-type calcium channel subunit alpha-1C. The assay is described as §3. The class given is functional, cell-based. More on the design: ca sol conc 0 mM, temp room. This is another data set of the same source.

SMILES strings stand for the structures.

Our source for the IC50 values is ChEMBL document CHEMBL3436046, “Predictive model for L-type channel inhibition: multichannel block in QT prolongation risk assessment” (J Appl Toxicol, 2012).

The IC50 is the midpoint of a concentration-inhibition curve.

T2 sequence (O35505 whole entry): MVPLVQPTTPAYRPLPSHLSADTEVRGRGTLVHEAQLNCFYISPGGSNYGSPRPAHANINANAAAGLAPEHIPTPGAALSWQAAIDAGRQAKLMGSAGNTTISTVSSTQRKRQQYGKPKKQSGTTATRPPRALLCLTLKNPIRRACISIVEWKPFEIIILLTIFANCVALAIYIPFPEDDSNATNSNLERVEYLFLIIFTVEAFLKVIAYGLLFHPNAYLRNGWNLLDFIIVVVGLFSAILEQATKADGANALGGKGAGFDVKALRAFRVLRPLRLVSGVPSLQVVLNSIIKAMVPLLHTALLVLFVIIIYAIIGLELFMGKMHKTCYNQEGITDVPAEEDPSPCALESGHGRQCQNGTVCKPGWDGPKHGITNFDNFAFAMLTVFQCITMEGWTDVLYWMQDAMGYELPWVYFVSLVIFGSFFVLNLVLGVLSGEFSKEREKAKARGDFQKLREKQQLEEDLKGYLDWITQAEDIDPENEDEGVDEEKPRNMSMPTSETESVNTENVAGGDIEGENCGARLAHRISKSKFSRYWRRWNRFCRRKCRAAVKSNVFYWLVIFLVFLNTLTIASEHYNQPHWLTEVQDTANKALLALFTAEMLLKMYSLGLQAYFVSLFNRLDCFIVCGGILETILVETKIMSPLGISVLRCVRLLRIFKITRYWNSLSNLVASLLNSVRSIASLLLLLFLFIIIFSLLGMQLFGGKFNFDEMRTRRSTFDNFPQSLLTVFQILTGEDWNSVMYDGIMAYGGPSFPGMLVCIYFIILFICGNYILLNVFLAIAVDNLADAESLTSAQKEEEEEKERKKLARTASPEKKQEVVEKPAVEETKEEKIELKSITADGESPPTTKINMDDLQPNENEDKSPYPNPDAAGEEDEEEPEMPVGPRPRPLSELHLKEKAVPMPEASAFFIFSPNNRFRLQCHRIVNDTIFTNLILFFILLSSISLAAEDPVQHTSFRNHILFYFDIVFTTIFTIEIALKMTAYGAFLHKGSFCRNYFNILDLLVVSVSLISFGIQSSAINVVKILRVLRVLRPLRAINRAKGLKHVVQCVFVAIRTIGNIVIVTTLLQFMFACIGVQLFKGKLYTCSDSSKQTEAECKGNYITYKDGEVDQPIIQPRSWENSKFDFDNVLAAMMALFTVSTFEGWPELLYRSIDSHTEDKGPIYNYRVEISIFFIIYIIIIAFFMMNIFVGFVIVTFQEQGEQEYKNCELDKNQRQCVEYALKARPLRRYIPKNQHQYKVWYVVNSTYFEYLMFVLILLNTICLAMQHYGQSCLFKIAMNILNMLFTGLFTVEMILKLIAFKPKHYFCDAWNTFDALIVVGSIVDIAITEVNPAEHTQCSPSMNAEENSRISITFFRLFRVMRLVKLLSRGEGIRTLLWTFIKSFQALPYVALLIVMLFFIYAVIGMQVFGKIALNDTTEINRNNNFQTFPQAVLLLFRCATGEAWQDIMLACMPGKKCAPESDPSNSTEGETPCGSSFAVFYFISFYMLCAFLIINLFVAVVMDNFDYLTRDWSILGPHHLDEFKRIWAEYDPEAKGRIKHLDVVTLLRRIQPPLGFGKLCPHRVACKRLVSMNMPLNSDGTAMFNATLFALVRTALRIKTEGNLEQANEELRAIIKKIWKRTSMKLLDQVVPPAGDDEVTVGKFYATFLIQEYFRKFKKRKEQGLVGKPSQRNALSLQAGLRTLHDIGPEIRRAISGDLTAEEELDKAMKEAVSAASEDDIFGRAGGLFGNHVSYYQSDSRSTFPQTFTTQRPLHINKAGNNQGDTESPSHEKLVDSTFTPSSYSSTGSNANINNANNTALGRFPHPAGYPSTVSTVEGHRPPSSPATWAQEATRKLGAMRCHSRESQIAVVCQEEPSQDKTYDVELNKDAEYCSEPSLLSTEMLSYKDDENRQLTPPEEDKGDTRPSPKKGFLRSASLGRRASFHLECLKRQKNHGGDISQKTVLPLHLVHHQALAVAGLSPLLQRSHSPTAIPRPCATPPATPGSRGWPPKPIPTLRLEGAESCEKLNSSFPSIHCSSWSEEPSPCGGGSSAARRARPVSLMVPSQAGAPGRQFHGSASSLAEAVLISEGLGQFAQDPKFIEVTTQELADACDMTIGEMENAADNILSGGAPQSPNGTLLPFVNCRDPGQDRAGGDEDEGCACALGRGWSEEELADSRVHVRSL
T1 sequence (P22002 whole entry): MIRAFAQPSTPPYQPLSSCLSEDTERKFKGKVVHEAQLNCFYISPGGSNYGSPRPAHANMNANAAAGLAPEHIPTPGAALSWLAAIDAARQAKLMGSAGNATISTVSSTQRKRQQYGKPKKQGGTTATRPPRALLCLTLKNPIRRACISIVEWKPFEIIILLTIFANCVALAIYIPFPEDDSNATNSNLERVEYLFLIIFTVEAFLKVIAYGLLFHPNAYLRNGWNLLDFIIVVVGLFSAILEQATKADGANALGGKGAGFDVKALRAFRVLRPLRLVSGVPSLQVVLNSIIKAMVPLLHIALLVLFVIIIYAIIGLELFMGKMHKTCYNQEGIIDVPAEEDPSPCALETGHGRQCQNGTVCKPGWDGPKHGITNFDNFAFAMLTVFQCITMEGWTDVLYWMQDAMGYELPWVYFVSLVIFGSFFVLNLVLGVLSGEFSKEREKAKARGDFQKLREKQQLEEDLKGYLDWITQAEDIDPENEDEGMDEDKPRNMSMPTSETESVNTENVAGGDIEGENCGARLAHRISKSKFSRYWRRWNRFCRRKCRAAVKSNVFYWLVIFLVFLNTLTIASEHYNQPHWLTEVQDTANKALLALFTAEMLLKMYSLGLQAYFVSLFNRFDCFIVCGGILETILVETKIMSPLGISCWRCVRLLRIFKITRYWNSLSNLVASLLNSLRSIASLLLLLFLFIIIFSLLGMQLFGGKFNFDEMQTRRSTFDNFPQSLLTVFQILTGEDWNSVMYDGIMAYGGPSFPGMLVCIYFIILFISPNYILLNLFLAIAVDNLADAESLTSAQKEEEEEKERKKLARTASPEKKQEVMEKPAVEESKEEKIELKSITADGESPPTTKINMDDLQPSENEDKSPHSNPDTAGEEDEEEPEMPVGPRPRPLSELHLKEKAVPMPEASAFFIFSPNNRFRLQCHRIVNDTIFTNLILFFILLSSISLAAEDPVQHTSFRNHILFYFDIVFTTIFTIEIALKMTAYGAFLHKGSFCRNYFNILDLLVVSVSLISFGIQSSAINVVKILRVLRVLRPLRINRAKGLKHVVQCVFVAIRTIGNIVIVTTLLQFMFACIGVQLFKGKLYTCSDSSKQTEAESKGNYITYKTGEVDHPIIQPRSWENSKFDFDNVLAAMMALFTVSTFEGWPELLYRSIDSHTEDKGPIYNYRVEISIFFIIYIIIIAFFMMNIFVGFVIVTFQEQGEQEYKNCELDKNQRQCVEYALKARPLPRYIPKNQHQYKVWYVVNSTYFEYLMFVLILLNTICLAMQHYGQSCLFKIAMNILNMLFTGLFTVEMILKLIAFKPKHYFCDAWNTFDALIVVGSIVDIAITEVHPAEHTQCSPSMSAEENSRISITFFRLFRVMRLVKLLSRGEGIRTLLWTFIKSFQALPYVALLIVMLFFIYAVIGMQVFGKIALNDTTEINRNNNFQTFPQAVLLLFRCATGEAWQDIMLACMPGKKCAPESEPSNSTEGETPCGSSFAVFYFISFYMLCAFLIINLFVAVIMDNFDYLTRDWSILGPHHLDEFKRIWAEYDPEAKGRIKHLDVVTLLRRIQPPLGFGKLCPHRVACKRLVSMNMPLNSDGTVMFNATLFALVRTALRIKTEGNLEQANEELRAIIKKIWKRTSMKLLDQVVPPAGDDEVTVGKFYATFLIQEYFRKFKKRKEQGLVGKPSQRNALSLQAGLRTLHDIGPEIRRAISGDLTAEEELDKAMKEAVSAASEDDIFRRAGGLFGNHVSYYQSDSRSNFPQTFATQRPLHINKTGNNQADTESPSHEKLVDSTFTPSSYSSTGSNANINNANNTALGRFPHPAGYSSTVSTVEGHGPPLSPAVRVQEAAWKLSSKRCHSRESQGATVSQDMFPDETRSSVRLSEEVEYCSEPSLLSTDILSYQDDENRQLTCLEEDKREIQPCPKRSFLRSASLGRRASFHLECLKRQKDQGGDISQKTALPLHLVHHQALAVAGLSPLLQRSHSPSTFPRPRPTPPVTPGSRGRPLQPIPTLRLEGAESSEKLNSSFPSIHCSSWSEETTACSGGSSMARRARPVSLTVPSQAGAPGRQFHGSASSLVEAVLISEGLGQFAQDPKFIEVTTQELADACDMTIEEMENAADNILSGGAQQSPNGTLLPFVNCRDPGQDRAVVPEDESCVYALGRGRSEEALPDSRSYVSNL

Consider `O=C(O)Cc1ccccc1Nc1c(Cl)cccc1Cl` [DICLOFENAC], for which the IC50 in assay [1] was 12.9 µM.
On to `COCCOC(=O)C1=C(C)NC(C)=C(C(=O)OC(C)C)C1c1cccc([N+](=O)[O-])c1` (stereo not given) [NIMODIPINE], for which the IC50 in assay [2] was 0.3 µM.
Turning to `Cc1cccc(CCN2CCC(C(=O)c3ccc(NS(C)(=O)=O)cc3)CC2)n1`, the IC50 in [3] came out at 441 µM.
As to `COC(=O)C1=C(C)NC(C)=C(C(=O)O[C@H]2CCN(Cc3ccccc3)C2)[C@H]1c1cccc([N+](=O)[O-])c1` [BARNIDIPINE], the IC50 amounted to 3.1 µM in [4] and 1.2 µM in [5].
As to `CCN(CC)CCCC(C)Nc1c2ccc(Cl)cc2nc2ccc(OC)cc12` (stereo not given) [QUINACRINE], the IC50 in [6] stood at 5.2 µM.
In the case of `CNCCCN1c2ccccc2CCc2ccccc21` [DESIPRAMINE], in assay [7], the IC50 turned out to be 11.7 µM.
For the compound `CCCC(=O)OCOC(=O)C1=C(C)NC(C)=C(C(=O)OC)C1c1cccc(Cl)c1Cl` (stereo not given) [CLEVIDIPINE], the figures for the IC50 in [8] and in assay [9] were 0.0071 µM and 0.0788 µM, respectively.
On to `CCCCC/C=C\C/C=C\C/C=C\C/C=C\CCCC(=O)O` [ARACHIDONIC ACID], for which the figures for the IC50 in assay [10] and in assay [11] were 5.8 µM and 8.5 µM, respectively.
`CC(NCCC(c1ccccc1)c1ccccc1)c1ccccc1` (stereo not given) [FENDILINE]: the IC50 in assay [12] came to 17 µM.
Turning to `CC1=C(C(=O)OCCCCCCCCCC[N+](C)(C)C)C(c2cccc3nonc23)C(C(=O)OC(C)C)=C(C)N1` (stereo not given), the IC50 in [13] is 0.07 µM.
As to `c1ccc(C2(c3ccccc3)CC2C2=NCCN2)cc1` (stereo not given) [CIFENLINE], the values for the IC50 in assay [14], in [15] and in assay [16] were 30 µM, 14.4 µM and 14 µM, respectively.
For `CN1CCCC(n2nc(Cc3ccc(Cl)cc3)c3ccccc3c2=O)CC1` (stereo not given) [AZELASTINE], the IC50 in assay [17] was found to be 20.2 µM.
Turning to `O=C1NC(=O)C(c2ccccc2)(c2ccccc2)N1` [PHENYTOIN], the concentration for half-maximal inhibition (IC50) in [18] is 125 µM.
Consider `Cc1ccc(O)c([C@H](CCN(C(C)C)C(C)C)c2ccccc2)c1` [TOLTERODINE], for which, in assay [16], the IC50 amounted to 0.143 µM.
With `CC(C)COCC(CN(Cc1ccccc1)c1ccccc1)N1CCCC1` (stereo not given) [BEPRIDIL], the figures for the IC50 in assay [19] and in assay [3] were 2.6 µM and 0.5 µM, respectively.
`CCCC(=O)N1CCCN(c2nc(N)c3cc(OC)c(OC)cc3n2)CC1` [BUNAZOSIN]: the IC50 in assay [14] came out at 60 µM.
For the compound `CC(C)Cn1c(=O)n(C)c(=O)c2[nH]cnc21` [ISOBUTYLMETHYLXANTHINE], the IC50 in [20] amounted to 466 µM.
Take `CC[C@H](CO)Nc1nc(NCc2ccccc2)c2ncn(C(C)C)c2n1` [SELICICLIB]: in assay [21], the IC50 amounted to 23.4 µM.
With `COc1cc(N)c(Cl)cc1C(=O)NC1CCN(CCCOc2ccc(F)cc2)CC1OC` (stereo not given) [CISAPRIDE], the concentration for half-maximal inhibition (IC50) in assay [22] was found to be 46.9 µM; in assay [3] it was 16 µM.
`Cc1cccc(C)c1N(CCCc1cccnc1)C(=O)[C@@H](C)N`: the IC50 in assay [23] came out at 55 µM.
For the compound `CN(C)CCCN1c2ccccc2CCc2ccc(Cl)cc21` [CLOMIPRAMINE], the IC50 in [7] came to 11.6 µM.
For the compound `COCCOC(=O)C1=C(C)NC(C)=C(C(=O)OC/C=C/c2ccccc2)C1c1cccc([N+](=O)[O-])c1` (stereo not given) [CILNIDIPINE], the values for the IC50 in assay [24] and in [4] were 12.7 µM and 5.3 µM, respectively.
